Measurements published in patent US10508107B2, “Morpholine derivative” (Hoffmann-La Roche Inc., priority 2016, dated 2019).
Read-outs that look alike come from different tables or passages of the source.

Assays:
human TAAR1 = human TAAR1 (Homo sapiens (Human), UniProt Q96RJ0); test: cAMP functional assay in HEK293 cells expressing human TAAR1; format: cell-based; details: for hTAAR1 efficacy*: % agonist activity, β-phenylethylamine = 100% agonism; for EC50: cAMP, HEK293 cells expressing human TAAR1, read-out: hTAAR1 EC50
Procedure: For the construction of expression plasmids the coding sequences of human TAAR 1 were amplified from genomic DNA essentially as described by Lindemann et al.[14]. The Expand High Fidelity PCR System (Roche Diagnostics) was used with 1.5 mM Mg^2+ and purified PCR products were cloned into pCR2.1-TOPO cloning vector (Invitrogen) following the instructions of the manufacturer. PCR products were subcloned into the pIRESneo2 vector (BD Clontech, Palo Alto, Calif.), and expression vectors were sequence verified before introduction in cell lines.
HEK293 cells (ATCC # CRL-1573) were cultured essentially as described by Lindemann et al. (2005). For the generation of stably transfected cell lines HEK293 cells were transfected with the pIRESneo2 expression plasmids containing the TAAR coding sequences (described above) with Lipofectamine 2000 (Invitrogen) according to the instructions of the manufacturer, and 24 hrs post transfection the culture medium was supplemented with 1 mg/ml G418 (Sigma, Buchs, Switzerland). After a culture period of about 10 d clones were isolated, expanded and tested for responsiveness to trace amines (all compounds purchased from Sigma) with the cAMP Biotrak Enzyme immunoassay (EIA) System (Amersham) following the non-acetylation EIA procedure provided by the manufacturer.
cAMP measurements were performed as described previously (Revel et al., Proc. Natl. Acad. Sci. USA 2011, 108, 8485-8490). In brief, cells that expressed human TAAR1 were plated on 96-well plates (BIOCOAT 6640; Becton Dickinson, Allschwil, Switzerland) and incubated for 20 h at 37° C. Prior to stimulation of the cells with a broad concentration range of agonists for 30 min at 37° C., the cells were washed with PBS and preincubated with PBS that contained 1 mM 3-isobutyl-1-methylxanthine for 10 min at 37° C. and 5% CO2. Stimulation with 0.2% DMSO was set as the basal level, and the effect of 30 μM β-PEA was set as the maximal response. Subsequently, the cells were lysed, and cAMP assays were performed according to the manufacturer's instructions (cAMP kit; Upstate/Millipore, Schaffhausen, Switzerland). Finally, the plates were read with a luminometer (1420 Multilabel counter; PerkinElmer, Schwerzenbach, Switzerland), and the amount of cAMP was calculated. The results were obtained from at least three independent experiments. Experiments were run in duplicate or triplicate. EC50 values are presented as mean ±standard deviation (in μM).

human DAT = human DAT (Homo sapiens (Human), UniProt Q01959); test: Binding to dopamine transporter (DAT) in vitro, [3H]-WIN35,428 SPA; details: for Ki: [3H]-WIN35,428 radioligand; for DAT selectivity ratio versus hTAAR1 EC50: DAT Ki / hTAAR1 EC50
Procedure: Binding to dopamine transporter (DAT) in vitro. Human embryonic kidney (HEK) 293 cells (Invitrogen, Zug, Switzerland) stably transfected with human DAT were cultured. The cells were collected and washed three times with phosphate-buffered saline (PBS). The pellets were frozen at −80° C. The pellets were then resuspended in 400 ml of 20 mM HEPES-NaOH, pH 7.4, that contained 10 mM EDTA at 4° C. After homogenization with a Polytron (Kinematica, Lucerne,
Switzerland) at 10000 rotations per minute (rpm) for 15 s, the homogenates were centrifuged at 48000×g for 30 min at 4° C. Aliquots of the membrane stocks were frozen at −80° C. All assays were performed at least three times. The test compounds were diluted in […] of binding buffer (252 mM NaCl, 5.4 mM KCl, 20 mM Na2HPO4, 3.52 mM KH2PO4, pH 7.4) and 10 point dilution curves were made and transferred to 96-well white polystyrene assay plates (Sigma-Aldrich, Buchs, Switzerland). […] Twenty microliters of binding buffer alone in the assay plate defined the total binding, whereas binding in the presence of 10 μM indatraline defined nonspecific binding. Frozen DAT membrane stocks were thawed and resuspended to a concentration of approximately 0.04 mg protein/ml binding buffer (1:1 diluted in H2O) using a polytron tissue homogenizer. The membrane homogenates (40 μg/ml) were then lightly mixed for 5-30 min with polyvinyl toluene […] wheat germ agglutinin-coated scintillation proximity assay (WGASPA; Amersham Biosciences) beads at 7.7 mg beads/ml homogenate. One hundred thirty microliters of the membrane/bead mixture were added to each well of the assay plate that contained radioligand and test compounds (final volume in each well, 200 μl) to start the assay, which was incubated for approximately 2 h at room temperature with agitation. The assay plates were then counted in the PVT SPA counting mode of a Packard Topcount. […] Non-linear regression was used to fit the data to sigmoid curves and determine IC50 values for binding and uptake. Ki values for binding and uptake were calculated using the following Cheng-Prusoff equation: Ki=IC50/(1+[S]/Km).

hERG potassium channel = hERG potassium channel (Homo sapiens (Human), UniProt Q12809); test: hERG whole-cell patch-clamp in stably transfected CHO cells; format: cell-based; details: for selectivity ratio: pH 7.4, hERG IC20 / hTAAR1 EC50, read-out: hERG selectivity ratio versus hTAAR1 EC50; for IC50: patch-clamp, CHO cells, 36±1° C.
Procedure: The whole-cell patch-clamp technique was used to investigate the effects of the test items on hERG (human-ether-a-go-go related gene) potassium channels in stably transfected CHO cells near physiological temperature (36±1° C.). The effects of compounds on hERG K^+-current parameters were evaluated at 4 concentrations (0.3-3-30-300 μM) in at least 3 CHO cells stably expressing the hERG channel. For electrophysiological measurements cells were seeded onto 35 mm sterile culture dishes containing 2 ml culture medium without Hygromycin B. Cells were cultivated at a density that enabled single cells (without visible connections to neighbouring cells) to be measured. Cells were incubated at 37° C. in a humidified atmosphere with 5% CO2 (rel. humidity about 95%). The cells were continuously maintained in and passaged in sterile culture flasks containing nutrient mixture F-12 (DMEM/F-12 with L-Glutamine) supplemented with 10% foetal bovine serum and 10% penicillin/streptomycin solution. […] The 35 mm culture dishes upon which cells were seeded at a density allowing single cells to be recorded were placed on the dish holder of the microscope and continuously perfused (at approximately 1 ml/min) with the bath solution (sodium chloride 150 mM, potassium chloride 4 mM, calcium chloride 1.2 mM, magnesium chloride 1 mM, HEPES 10 mM, pH (NaOH) 7.4) at near physiological temperature (36±1° C.). After formation of a Gigaohm seal between the patch electrodes and individual hERG stably transfected CHO cells (pipette resistance range: 2.0 MΩ-7.0 Mω; seal resistance range: >1 Gω) the cell membrane across the pipette tip was ruptured to assure electrical access to the cell interior (whole-cell patch-configuration). In case the quality of the seal was poor, the process of seal formation was repeated with a different cell and a new pipette. […] This voltage protocol was run at least 10 times at intervals of 10 s. If current density was judged to be too low for measurement, another cell was recorded. […] During wash-in of the test item the voltage protocol indicated above was run continuously again at 10 s intervals until the steady-state level of block was reached. The four test item concentrations of the compound were applied sequentially to 3 cells in a cumulative manner. […] Based on the IC50 value the IC20 was estimated. Each concentration of the test item was analyzed in three experiments (n=3).

[1] = estimated based on the IC50 value
[2] = human, CHO cells stably expressing hERG
[3] = human, CHO cells stably expressing hERG, pH 7.4, estimated based on the IC50 value

Sequence of hERG potassium channel (Q12809 whole entry): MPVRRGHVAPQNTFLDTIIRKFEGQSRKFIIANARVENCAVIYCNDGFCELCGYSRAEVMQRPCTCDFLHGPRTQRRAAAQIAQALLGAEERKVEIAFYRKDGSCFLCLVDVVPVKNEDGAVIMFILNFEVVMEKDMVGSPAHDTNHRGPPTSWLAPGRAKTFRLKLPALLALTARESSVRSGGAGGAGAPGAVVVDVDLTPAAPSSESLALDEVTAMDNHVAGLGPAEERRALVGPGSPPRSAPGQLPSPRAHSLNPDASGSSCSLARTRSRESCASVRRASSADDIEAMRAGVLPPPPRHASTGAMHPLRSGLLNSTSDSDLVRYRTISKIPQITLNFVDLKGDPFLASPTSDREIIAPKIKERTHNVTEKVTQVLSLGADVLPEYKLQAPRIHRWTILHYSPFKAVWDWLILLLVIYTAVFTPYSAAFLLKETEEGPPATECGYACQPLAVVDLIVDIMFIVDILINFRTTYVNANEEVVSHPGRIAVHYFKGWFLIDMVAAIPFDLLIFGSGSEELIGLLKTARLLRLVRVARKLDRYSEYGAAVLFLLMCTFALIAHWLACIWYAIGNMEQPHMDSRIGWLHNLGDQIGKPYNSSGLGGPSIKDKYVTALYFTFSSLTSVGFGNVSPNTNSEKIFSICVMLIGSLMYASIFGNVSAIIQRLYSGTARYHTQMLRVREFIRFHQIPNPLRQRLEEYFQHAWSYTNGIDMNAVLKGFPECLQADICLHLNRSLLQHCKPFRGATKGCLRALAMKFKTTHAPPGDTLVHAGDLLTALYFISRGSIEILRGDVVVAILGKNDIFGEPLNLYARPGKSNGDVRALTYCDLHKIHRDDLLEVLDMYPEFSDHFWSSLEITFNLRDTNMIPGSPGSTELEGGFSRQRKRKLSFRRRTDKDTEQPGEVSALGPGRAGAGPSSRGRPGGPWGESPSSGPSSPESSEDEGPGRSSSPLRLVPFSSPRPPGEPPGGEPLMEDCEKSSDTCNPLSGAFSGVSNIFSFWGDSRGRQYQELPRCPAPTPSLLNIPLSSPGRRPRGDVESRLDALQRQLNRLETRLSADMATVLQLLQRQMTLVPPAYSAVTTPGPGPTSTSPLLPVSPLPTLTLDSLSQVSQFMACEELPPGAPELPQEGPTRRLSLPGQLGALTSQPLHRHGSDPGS
Sequence of human TAAR1 (Q96RJ0 whole entry): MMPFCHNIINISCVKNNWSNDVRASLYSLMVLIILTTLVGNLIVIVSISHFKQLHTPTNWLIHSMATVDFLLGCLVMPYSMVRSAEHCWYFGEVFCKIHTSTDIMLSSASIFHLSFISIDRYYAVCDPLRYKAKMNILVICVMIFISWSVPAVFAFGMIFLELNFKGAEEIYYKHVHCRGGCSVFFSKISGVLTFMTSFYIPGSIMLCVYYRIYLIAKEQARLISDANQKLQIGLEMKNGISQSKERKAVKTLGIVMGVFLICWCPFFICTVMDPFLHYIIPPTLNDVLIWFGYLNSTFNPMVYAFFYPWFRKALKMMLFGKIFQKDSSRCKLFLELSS
Sequence of human DAT (Q01959 whole entry): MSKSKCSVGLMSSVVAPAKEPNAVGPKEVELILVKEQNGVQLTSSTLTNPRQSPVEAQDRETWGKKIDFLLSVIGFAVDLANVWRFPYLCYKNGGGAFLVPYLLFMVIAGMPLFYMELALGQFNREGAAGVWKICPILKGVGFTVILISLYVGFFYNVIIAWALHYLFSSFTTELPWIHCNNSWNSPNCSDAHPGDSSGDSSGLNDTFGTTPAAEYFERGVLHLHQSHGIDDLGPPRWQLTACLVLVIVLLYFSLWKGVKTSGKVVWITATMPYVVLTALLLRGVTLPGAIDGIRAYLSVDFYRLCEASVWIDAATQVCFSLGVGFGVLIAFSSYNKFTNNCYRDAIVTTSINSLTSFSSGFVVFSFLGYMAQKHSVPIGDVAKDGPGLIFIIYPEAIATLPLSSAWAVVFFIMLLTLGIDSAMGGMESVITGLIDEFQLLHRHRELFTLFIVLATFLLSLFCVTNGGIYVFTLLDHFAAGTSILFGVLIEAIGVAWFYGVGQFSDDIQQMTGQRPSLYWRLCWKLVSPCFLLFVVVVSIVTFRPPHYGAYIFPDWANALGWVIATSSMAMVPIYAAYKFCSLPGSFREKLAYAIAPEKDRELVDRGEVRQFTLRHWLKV

SMILES	hTAAR1 efficacy* (human TAAR1) [%]	EC50 (human TAAR1; listed as example 9) [nM]	EC50 (human TAAR1) [nM]	Ki (human DAT) [nM]	Ki (human DAT; listed as example 6) [nM]	EC50 (human TAAR1; listed as example 11) [nM]	EC50 (human TAAR1; listed as example 15) [nM]	Ratio DAT Ki/hTAAR1 EC50 (human DAT)	Ratio hERG IC20/hTAAR1 EC50 (hERG potassium channel)	IC20 (hERG potassium channel; [1]) [nM]	selectivity ratio (hERG potassium channel; [2])	IC50 (hERG potassium channel) [nM]	DAT selectivity ratio versus hTAAR1 EC50 (human DAT) [fold]	IC20 (hERG potassium channel; [3]) [nM]	EC50 (human TAAR1; listed as example 12) [nM]	EC50 (human TAAR1; listed as example 10) [nM]
O=C(Nc1ccc([C@H]2CNCCO2)cc1)c1cnc(Cl)c(Cl)c1 [Example 9, 5,6-Dichloro-N-[4-[(2S)-morpholin-2-yl]phenyl]pyridine-3-carboxamide]	32	144	144	480	–	–	–	–	–	–	–	–	–	–	–	–
O=C(Nc1ccc([C@H]2CNCCO2)cc1)c1cnc(-c2ccccc2)s1 [Example 6, N-[4-[(2S)-Morpholin-2-yl]phenyl]-2-phenyl-1,3-thiazole-5-carboxamide]	30	–	80	5930	5900	–	–	–	–	–	–	–	–	–	–	–
O=C(Nc1ccc([C@H]2CNCCO2)cc1)c1ccc(C(F)(F)F)nc1 [Example 11, N-[4-[(2S)-Morpholin-2-yl]phenyl]-6-(trifluoromethyl)pyridine-3-carboxamide]	46	–	203	2330	–	203	–	–	–	–	–	–	–	–	–	–
O=C(Nc1ccc([C@H]2CNCCO2)cc1)c1coc(-c2ccccc2)n1 [Example 15, N-[4-[(2S)-Morpholin-2-yl]phenyl]-2-phenyl-1,3-oxazole-4-carboxamide]	35	–	663	> 26100	–	–	663	>39	4	2400	4	9650	–	–	–	–
O=C(Nc1ccc([C@H]2CNCCO2)cc1)c1ccc(OCC(F)(F)F)nc1 [Example 3, N-[4-[(2S)-Morpholin-2-yl]phenyl]-6-(2,2,2-trifluoroethoxy)pyridine-3-carboxamide]	45	–	37.7	17400	–	–	–	462	52	1970	52	9840	–	–	–	–
O=C(Nc1ccc([C@H]2CNCCO2)cc1)c1cc(Cl)nc(Cl)c1 [Example 7, 2,6-Dichloro-N-[4-[(2S)-morpholin-2-yl]phenyl]pyridine-4-carboxamide]	57	–	84.9	790	–	–	–	9	43	3670	43	11400	9	3570	–	–
Cc1c(C(=O)Nc2ccc([C@H]3CNCCO3)cc2)n[nH]c1-c1ccccc1 [Example 8, 4-Methyl-N-[4-[(2S)-morpholin-2-yl]phenyl]-5-phenyl-1H-pyrazole-3-carboxamide]	33	–	109	9770	–	–	–	90	28	3010	28	10800	–	–	–	–
O=C(Nc1ccc([C@H]2CNCCO2)cc1)c1csc(-c2ccccc2)n1 [Example 16, N-[4-[(2S)-Morpholin-2-yl]phenyl]-2-phenyl-1,3-thiazole-4-carboxamide]	35	–	666	16200	–	–	–	24	5	3350	5	8980	–	–	–	–
O=C(Nc1ccc([C@H]2CNCCO2)cc1)c1ccc(Cl)nc1 [Example 4, 6-Chloro-N-[4-[(2S)-morpholin-2-yl]phenyl]pyridine-3-carboxamide]	49	–	61.9	2500	–	–	–	40	201	–	–	49700	40	12400	–	–
O=C(Nc1ccc([C@H]2CNCCO2)cc1)c1ccc(Cl)cn1 [Example 12, 5-Chloro-N-[4-[(2S)-morpholin-2-yl]phenyl]pyridine-2-carboxamide]	40	–	212	1780	–	–	–	8	15	–	15	14300	8	3210	212	–
N#Cc1ccc(C(=O)Nc2ccc([C@H]3CNCCO3)cc2)cn1 [Example 10, 6-Cyano-N-[4-[(2S)-morpholin-2-yl]phenyl]pyridine-3-carboxamide]	38	–	184	11300	–	–	–	62	31	5780	31	31700	–	–	–	184
CCc1[nH]nc(C(=O)Nc2ccc([C@@H]3CNCCO3)cc2)c1C [Example 2, 5-Ethyl-4-methyl-N-[4-[(2R)-morpholin-2-yl]phenyl]-1H-pyrazole-3-carboxamide]	38	–	–	–	–	–	–	–	–	–	–	–	–	–	–	–
